From PubChem BioAssay AID2060502 (Molecular Pharmacology Branch, DTP, NCI, 2025)
Several values for one entry are separate records, joined by “and”; a condition that tells them apart may be missing. Equal entries are not always repeated.

System: 885724-159-R-J1-PDC complex spheroid viability
Experiment: Anticancer human tumor 885724-159-R-J1-PDC patient-derived pancreatic adenocarcinoma cell line growth inhibition [GQUAD]
Conditions: for viability, T/C: stronger effect = lower value
Source text: DNA G-quadruplex Stabilizer Agents in Combinations in Complex Spheroids
A high-throughput screen of multi-cell type tumor spheroids was designed to identify active combinations of DNA G-quadruplex stabilizer agents and targeted small molecules. Complex spheroids include a stromal component modeled by human endothelial cells (HUVEC) and fibroblasts modeled by human mesenchymal stem cells (MSCs). The concentration ranges selected for each drug and investigational agent were based upon clinically achievable concentrations if the clinical Cmax of the agent was known.
Compounds. The drugs and investigational agents: pidnarulex (CX-5461; NSC782164), APTO-253 (NSC789042), BRACO-19 (NSC847499), peposertib (NSC802822), ceralasertib (NSC780249), elimusertib (NSC800525), camonsertib (NSC841442), AZD-1390 (NSC803789), olaparib (NSC753686), talazoparib (NSC767125), ART-558 (NSC835418), sotorasib (NSC818433), MRTX-1133 (NSC836407), SN-38 (NSC673596), topotecan (NSC609699), etoposide (NSC141540), doxorubicin (NSC123127), gemcitabine (NSC613327), 5-fluorouracil (NSC19893), paclitaxel (NSC125973), vemurafenib (NSC761431), panobinostat (NSC761190), R-306465 (JNJ-16241199; NSC773264), adavosertib (NSC754352), TP-3654 (NSC805149), carboplatin (NSC241240), KSQ-4279 (NSC840948), and staurosporine (NSC755774) were obtained from the National Cancer Institute (NCI) Developmental Therapeutics Program Chemical Repository (34). The FDA-approved anticancer drug set is available from the NCI Developmental Therapeutics Program. […] The stock solutions were prepared in dimethyl sulfoxide (DMSO, Sigma-Aldrich, St. Louis, MO, cat. D2650) at 800-fold the tested concentration and stored at -70 degrees C prior to their use. All drugs and investigational agents were tested over a range starting from a high concentration at or near the clinical Cmax and decreasing in half-log increments. If the clinical Cmax for an agent had not been determined, the highest concentration tested was 10 microM.
2.3 Cell Culture. All cells were maintained in an incubator at 37 degrees C and 5% CO2 with 95% humidity. The PDC lines were cultured according to standard operating procedures established by the NCI PDMR. All PDCs were thawed and cultured in Matrigel-coated flasks prepared with a working solution of 1X Ham's F-12 nutrient mix, without supplementation (Invitrogen, cat. 11765054), 100 U/mL penicillin-streptomycin (Invitrogen, cat. 15140122), and 2.5% Matrigel (Corning Inc., cat. 354248) for the first three passages. The 857933-349-R-J2-PDC line was cultured in 6C/Colon 1B media, which includes advanced DMEM/F-12 (Thermo Fisher Scientific, cat. 12634028), 10 mM HEPES (Thermo Fisher Scientific, cat. 15630080), 1X GlutaMAX supplement (Thermo Fisher Scientific, cat. 35050061), 0.1 mg/mL primocin (InvivoGen, cat. ant-pm-2), 10% defined fetal bovine serum, heat inactivated (HyClone Laboratories Inc., cat. SH30070.03HI), 50% L-WRN conditioned media (ATCC, cat. CRL-3276), 1.25 mM N-Acetyl-L-cysteine (Sigma-Aldrich, cat. A9165), 10 mM nicotinamide (Sigma-Aldrich, cat. N0636), 1X B-27 supplement (Thermo Fisher Scientific, cat. 17504044), 1X N-2 supplement (Thermo Fisher Scientific, cat. 17502048), 10 microM Y-27632 dihydrochloride (Tocris Bioscience, cat. 1254), and 50 ng/mL human EGF recombinant protein (Thermo Fisher Scientific, cat. PHG0311). The 485176-168-R4-J1-PDC line was cultured in Panc media, which includes all 6C/Colon 1B media components plus 100 ng/mL human FGF-10 (Thermo Fisher Scientific, cat. 100-26), 500 nM SB-431542 (Selleckchem, cat. S1067), and gastrin (Tocris, cat. 3006).
[…]
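Further: spheroids exposed to agents for seven days before readout.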
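Wherever viability, T/C is given: percent of vehicle control viability where 100% = DMSO wells.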

SMILES	IC50 (curve of compound)	IC50 (compound alone, run of 02/20/2024)	viability, T/C (compound 0.0316 µM)	viability, T/C (compound 0.1 µM)	viability, T/C (compound 0.316 µM)	viability, T/C (compound 1 µM)	viability, T/C (compound 3.16 µM)	viability, T/C (compound 10 µM)
C#Cc1c(F)ccc2cc(O)cc(-c3ncc4c(N5CC6CCC(C5)N6)nc(OCC56CCCN5CC(F)C6)nc4c3F)c12 (centres undefined)	3.8 µM and 3.95 µM and 4.07 µM	–	97.3% and 99.6% and 91.8%	101% and 92.4% and 93%	89.8% and 94.6% and 104%	90.2% and 88.2% and 81.5%	53.6% and 55.8% and 58.6%	30% and 25.7% and 22.7%
CC(=O)O[C@H]1C(=O)[C@@]2(C)[C@H]([C@H](OC(=O)c3ccccc3)[C@]3(O)C[C@H](OC(=O)[C@H](O)[C@@H](NC(=O)c4ccccc4)c4ccccc4)C(C)=C1C3(C)C)[C@]1(OC(C)=O)CO[C@@H]1C[C@@H]2O	> 10 µM	–	100% and 92% and 97.8%	66.6% and 80.5% and 89.4%	82.2% and 93.6% and 90.7%	83.6% and 86.1% and 96.7%	89.6% and 91% and 100%	93% and 104% and 107%
CCCS(=O)(=O)Nc1ccc(F)c(C(=O)c2c[nH]c3ncc(-c4ccc(Cl)cc4)cc23)c1F	> 10 µM	–	98.5% and 105% and 90.7%	90.2% and 105% and 92.3%	111% and 124% and 116%	136% and 138% and 124%	148% and 137% and 134%	82% and 77.5% and 78.7%

Second part, led by results:

IC50 (curve of compound)	IC50 (compound alone, run of 02/20/2024)	SMILES	viability, T/C (compound 0.0316 µM)	viability, T/C (compound 0.1 µM)	viability, T/C (compound 0.316 µM)	viability, T/C (compound 1 µM)	viability, T/C (compound 3.16 µM)	viability, T/C (compound 10 µM)
> 10 µM	–	C=CCn1c(=O)c2cnc(Nc3ccc(N4CCN(C)CC4)cc3)nc2n1-c1cccc(C(C)(C)O)n1	90.4% and 95.2% and 93.1%	81.6% and 90.3% and 88.1%	68.6% and 78.2% and 86%	75.6% and 70.3% and 89.2%	65.7% and 58% and 84%	74.5% and 66.7% and 91.9%
4.44 µM and 2.56 µM and 2.25 µM	–	CC(C)(O)C1CCC(Nc2ccc3ncc(-c4cccc(C(F)(F)F)c4)n3n2)CC1 (centres undefined)	110% and 93.1% and 96.4%	95% and 90.9% and 102%	85.7% and 91.3% and 93.8%	75.3% and 74.9% and 73.6%	45.3% and 41.7% and 38.7%	46% and 47.1% and 39.8%
> 10 µM	–	COc1ncnc(C2CC2)c1-c1ncc2cnn(Cc3ccc(-c4nc(C(F)(F)F)cn4C(C)C)cc3)c2n1	86.6% and 90.5% and 93%	95.1% and 90.7% and 98.2%	99% and 97.4% and 93.2%	99.8% and 90.6% and 97.7%	90.2% and 96% and 92.5%	115% and 101% and 113%
–	> 10 µM	Cc1cnc(CNC(=O)c2c(=O)c3ccc(N4CCCN(C)CC4)nc3n3c2sc2ccccc23)cn1	–	–	98.5% [middle of 12 runs]	87.6% [middle of 11 runs]	80.1% [middle of 12 runs]	77.7% [middle of 12 runs]
0.859 µM and 0.726 µM and 0.723 µM	–	O=C(NO)c1cnc(N2CCN(S(=O)(=O)c3ccc4ccccc4c3)CC2)nc1	90.6% and 97.6% and 84%	98.7% and 96.6% and 80%	94.2% and 85.3% and 72%	43.3% and 36.8% and 41.2%	1.62% and 0.69% and 11.8%	0.25% and 0.51% and 0.27%
